Some test systems named below: SK-MEL-28; M14; MOLT-4; SNB-75; SW-620; SK-MEL-5; TK-10; A549; U-251; HOP-62; HL-60; T47D; UACC-257; SF-295; MDA-MB-231; NCI/ADR-RES; NCI-H522; MDA-MB-435; Malme-3M; OVCAR-4.
Assay in all cases: NCI-60 cell line screen, 48 h

Structures are written as SMILES.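 All cell lines were grown in 96-well plates and treated with compound for 48 hours. GI50: concentration for 50% inhibition of growth.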 Active and inactive are the calls of the source. Cut-off read from the data, not from the text of the source: active = GI50 up to about 1.1 µM and inactive = higher. Bounds are passed on as bounds.

We go through seven compounds from ChEMBL document CHEMBL1201862, “PubChem BioAssay data set” (2004).

Consider `c1ccc2/c3[nH]/c(c2c1)=N\c1ccc(cc1)-c1nc2ccc(cc2o1)/N=c1/[nH]/c(c2ccccc12)=N/c1ccc2nc(oc2c1)-c1ccc(cc1)\N=3`, for which the GI50 in the experiment with SK-MEL-28 is 24.5 µM (inactive); in the experiment on M14 it was 53.8 µM (inactive); in the experiment with MOLT-4, 14.9 µM (inactive); with SNB-75 it was > 100 µM (inactive); with SW-620, 26.5 µM (inactive); in the experiment on SK-MEL-5 it was 12.4 µM (inactive). The GI50 is > 100 µM (inactive) with TK-10; 26.8 µM (inactive) in the experiment on A549; 20.1 µM (inactive) in the experiment with U-251; 62.4 µM (inactive) in the experiment with HOP-62; 0.422 µM (active) with HL-60; 25.2 µM (inactive) in the experiment with T47D. Besides, the GI50 in the experiment with UACC-257 was > 100 µM (inactive); in the experiment with SF-295 it was 31 µM (inactive); in the experiment with MDA-MB-231, 27 µM (inactive); in the experiment with NCI/ADR-RES, 20.5 µM (inactive); with NCI-H522 it was 43.8 µM (inactive); in the experiment on MDA-MB-435, 27.6 µM (inactive).

Take `Cc1nnc(CC#N)n1NC(=O)CC#N`: the GI50 in the experiment with SK-MEL-28, in the experiment with M14, in the experiment with MOLT-4, in the experiment with SNB-75, with SW-620 and in the experiment on SK-MEL-5 was > 100 µM (inactive) throughout. Further, the GI50 in the experiment on TK-10, in the experiment on A549, in the experiment on U-251, with HOP-62, in the experiment with HL-60 and in the experiment with T47D was > 100 µM (inactive) each time. The GI50 with Malme-3M, with UACC-257, with SF-295, in the experiment with MDA-MB-231, in the experiment on NCI/ADR-RES and in the experiment with NCI-H522 was > 100 µM (inactive) throughout. Moreover, the GI50 with MDA-MB-435 is > 100 µM (inactive).

As to `CN(C)c1nc(N)nc(CCl)n1`, the GI50 in the experiment with SK-MEL-28 was 50.4 µM (inactive); with M14, 28.1 µM (inactive); in the experiment on MOLT-4 it was 18.8 µM (inactive); in the experiment on SNB-75, 0.912 µM (active); in the experiment on SW-620, 28.3 µM (inactive); in the experiment on SK-MEL-5 it was 29.5 µM (inactive). Further, the GI50 in the experiment on OVCAR-4 was 19.6 µM (inactive); in the experiment with TK-10, 72.8 µM (inactive); in the experiment on A549, 78.9 µM (inactive); in the experiment on U-251, 35.2 µM (inactive); with HOP-62 it was 17.5 µM (inactive); in the experiment with HL-60, 19.1 µM (inactive). The GI50 in the experiment on T47D was 60.4 µM (inactive); in the experiment on UACC-257, 87.7 µM (inactive); with SF-295, 30.8 µM (inactive); with MDA-MB-231 it was 27.9 µM (inactive); in the experiment on NCI/ADR-RES it was 22 µM (inactive); in the experiment on NCI-H522, 10.9 µM (inactive). Besides, in the experiment with MDA-MB-435, the GI50 is 37.1 µM (inactive).

`COc1ccc(/C(Cl)=C(\C=O)c2ccc([N+](=O)[O-])cc2)cc1OC`: the GI50 is 13.1 µM (inactive) in the experiment on SK-MEL-28; 7.28 µM (inactive) with M14; 3.05 µM (inactive) in the experiment on MOLT-4; 3.62 µM (inactive) with SNB-75; 6.12 µM (inactive) in the experiment on SW-620; 8.2 µM (inactive) with SK-MEL-5. In addition, the GI50 is 13.4 µM (inactive) in the experiment on TK-10; 24.7 µM (inactive) with A549; 6.32 µM (inactive) with U-251; 22.7 µM (inactive) in the experiment with HOP-62; 2.7 µM (inactive) in the experiment on HL-60; 6.9 µM (inactive) with T47D. The GI50 in the experiment with Malme-3M is 14.6 µM (inactive); in the experiment with UACC-257, 11.5 µM (inactive); with SF-295, 13.4 µM (inactive); in the experiment on MDA-MB-231, 13.8 µM (inactive); in the experiment with NCI/ADR-RES, 6.38 µM (inactive); with NCI-H522, 4.07 µM (inactive). The GI50 with MDA-MB-435 is 3.24 µM (inactive).

For `CCC(=O)n1c(=O)n(-c2ccc([N+](=O)[O-])cc2)c(=O)n1C(=O)CC`, the GI50 in the experiment with SK-MEL-28, in the experiment with M14, in the experiment with MOLT-4, in the experiment with SNB-75, in the experiment with SW-620 and in the experiment with SK-MEL-5 was > 100 µM (inactive) in each case. For the same compound, the GI50 in the experiment on OVCAR-4, in the experiment on TK-10, with A549, with U-251, with HOP-62 and with HL-60 was > 100 µM (inactive) in each case. Moreover, the GI50 with T47D, in the experiment with UACC-257, with SF-295, in the experiment with MDA-MB-231, with NCI/ADR-RES and in the experiment on NCI-H522 was > 100 µM (inactive) each time. In addition, in the experiment with MDA-MB-435, the GI50 is > 100 µM (inactive).

As for `O=C(CSCC(=O)N/N=C\c1ccc(O)c(O)c1O)N/N=C\c1ccc(O)c(O)c1O`, the GI50 in the experiment on SK-MEL-28 is 20.8 µM (inactive); with M14 it was 6.31 µM (inactive); in the experiment with MOLT-4, 3.15 µM (inactive); in the experiment on SNB-75, 2.11 µM (inactive); with SW-620, 3.39 µM (inactive); in the experiment on SK-MEL-5 it was 18.5 µM (inactive). The GI50 in the experiment with OVCAR-4 is 2.48 µM (inactive); with TK-10, 24 µM (inactive); in the experiment with A549, 23.9 µM (inactive); in the experiment on U-251, 4.84 µM (inactive); in the experiment with HL-60, 15.8 µM (inactive); in the experiment with T47D it was 18.7 µM (inactive). Also, the GI50 was 22.6 µM (inactive) in the experiment on Malme-3M; 5.25 µM (inactive) with UACC-257; 2.24 µM (inactive) in the experiment with SF-295; 16.6 µM (inactive) with MDA-MB-231; 1.54 µM (inactive) in the experiment with NCI/ADR-RES; 19.1 µM (inactive) in the experiment with NCI-H522. Besides, in the experiment on MDA-MB-435, the GI50 was 1.97 µM (inactive).

On to `CC(C)=CCC[C@](C)(O[C@@H]1O[C@H](CO)[C@@H](O)[C@H](O)[C@H]1O)[C@H]1CC[C@]2(C)[C@@H]1[C@H](O)C[C@@H]1[C@@]3(C)CC[C@H](O)C(C)(C)[C@@H]3[C@@H](O[C@@H]3O[C@H](CO)[C@@H](O)[C@H](O)[C@H]3O[C@@H]3O[C@@H](C)[C@H](O)[C@@H](O)[C@H]3O)C[C@]12C.CC(C)=CCC[C@](C)(O[C@@H]1O[C@H](CO)[C@@H](O)[C@H](O)[C@H]1O)[C@H]1CC[C@]2(C)[C@@H]1[C@H](O)C[C@@H]1[C@@]3(C)CC[C@H](O)C(C)(C)[C@@H]3[C@@H](O[C@@H]3O[C@H](CO)[C@@H](O)[C@H](O)[C@H]3O[C@@H]3O[C@H](CO)[C@@H](O)[C@H](O)[C@H]3O)C[C@]12C`, for which the GI50 in the experiment with SK-MEL-28, with M14, in the experiment with MOLT-4, in the experiment with SNB-75, with SW-620 and with SK-MEL-5 was > 75 µM (inactive) throughout. The GI50 is > 75 µM (inactive) in the experiment with OVCAR-4; > 75 µM (inactive) with TK-10; > 75 µM (inactive) with A549; > 75 µM (inactive) with U-251; 22.9 µM (inactive) with HOP-62; > 75 µM (inactive) in the experiment with HL-60. Further, the GI50 in the experiment on T47D is > 75 µM (inactive); with UACC-257, > 75 µM (inactive); with SF-295, 60.3 µM (inactive); in the experiment with MDA-MB-231 it was > 75 µM (inactive); in the experiment with NCI/ADR-RES, > 75 µM (inactive); in the experiment with NCI-H522, > 75 µM (inactive). Moreover, in the experiment on MDA-MB-435, the GI50 was > 75 µM (inactive).
